ChEMBL document CHEMBL1201862, “PubChem BioAssay data set” (2004)
The source made the active and inactive calls.

Assays:
Danio rerio = assay: In Vivo Angiogenesis Dose-Response Confirmation. [Related pubchem assays: 732 (Assay preceding this confirmatory assay.)]; type: functional, organism-based
Estrogen receptor = biological target: T1, Estrogen receptor (Homo sapiens, UniProt P03372);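 further: potency for inhibiting coactivator peptide recruitment to the receptor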
T1 sequence (P03372 whole entry): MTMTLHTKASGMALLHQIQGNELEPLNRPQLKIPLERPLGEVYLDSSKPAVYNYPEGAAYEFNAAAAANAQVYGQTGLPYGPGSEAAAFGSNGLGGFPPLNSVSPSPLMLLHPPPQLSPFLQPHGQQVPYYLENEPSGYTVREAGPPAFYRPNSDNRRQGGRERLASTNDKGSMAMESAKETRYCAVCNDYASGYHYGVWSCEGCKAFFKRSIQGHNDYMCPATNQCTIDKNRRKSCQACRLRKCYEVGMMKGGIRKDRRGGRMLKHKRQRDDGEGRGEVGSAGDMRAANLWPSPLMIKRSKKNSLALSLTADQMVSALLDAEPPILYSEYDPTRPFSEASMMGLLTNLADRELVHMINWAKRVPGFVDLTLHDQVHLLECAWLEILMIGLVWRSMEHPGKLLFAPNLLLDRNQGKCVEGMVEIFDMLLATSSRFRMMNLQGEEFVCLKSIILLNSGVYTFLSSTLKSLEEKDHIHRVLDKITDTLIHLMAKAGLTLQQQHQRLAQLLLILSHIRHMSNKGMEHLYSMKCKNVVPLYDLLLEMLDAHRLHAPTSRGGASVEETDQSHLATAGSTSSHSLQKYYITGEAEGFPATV

Estrogen receptor beta [1] = biological target: T2, Estrogen receptor beta (Homo sapiens, UniProt Q92731);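 further: recombinant ER-beta bound to coactivator SRC1 peptide in presence of estradiol agonist; inhibitors block coactivator peptide binding and lower the FRET signal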
Estrogen receptor beta [2] = biological target: T2, Estrogen receptor beta; assay: ERβ–SRC-3 coactivator interaction inhibitors, confirmation, orthogonal assay, biochemical, ELISA, streptavidin-HRP readout (AID 1060)
[3] = test system: Streptococcus sp. 'group A'; assay: growth inhibition of control SK(-) GAS strain, dose response, counter-screen for streptokinase expression inhibitor project, luminescence, kanamycin, BacTiterGlo, confirmation (AID 1900); type: functional, organism-based
Beta-galactosidase = Beta-galactosidase (Escherichia coli, UniProt Q8VNN2); assay: PubChem AID 485352; type: functional
Streptokinase A = biological target: T3, Streptokinase A (Streptococcus pyogenes serotype M1, UniProt P10520); assay: S. pyogenes streptokinase expression inhibitors, potency, dose response, plasminogen activation absorbance, OD405 (AID 1914); type: functional, Streptococcus pyogenes M1 GAS;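 further: secreted streptokinase activity via plasminogen activation per viability signal from cell pellet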
T3 sequence (P10520 whole entry): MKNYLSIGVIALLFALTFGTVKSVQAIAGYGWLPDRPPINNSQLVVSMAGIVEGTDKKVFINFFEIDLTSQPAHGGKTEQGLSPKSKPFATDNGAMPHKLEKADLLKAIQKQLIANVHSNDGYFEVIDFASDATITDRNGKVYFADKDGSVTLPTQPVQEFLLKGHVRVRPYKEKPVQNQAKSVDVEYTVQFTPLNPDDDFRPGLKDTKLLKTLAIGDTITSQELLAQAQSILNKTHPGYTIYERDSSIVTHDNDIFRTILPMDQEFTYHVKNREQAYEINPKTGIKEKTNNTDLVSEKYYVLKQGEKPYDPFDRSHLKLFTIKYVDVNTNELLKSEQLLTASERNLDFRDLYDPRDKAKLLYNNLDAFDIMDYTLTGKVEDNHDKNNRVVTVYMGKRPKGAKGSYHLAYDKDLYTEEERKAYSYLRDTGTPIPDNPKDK

Large T antigen = Large T antigen (Simian virus 40, UniProt P03070); type: functional, Betapolyomavirus macacae;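 further: Confirmatory-stage PubChem screen for compounds that inhibit SV40 T antigen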
[4] = biological target: T4, Type-1 angiotensin II receptor (Homo sapiens, UniProt P30556); assay: AT1 receptor antagonists, dose response, selectivity assay for APJ receptor antagonist project, cell-based, uHTS hits (AID 463214); type: functional;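 further: antagonist potency against angiotensin II stimulated AT1 response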
T4 sequence (P30556 whole entry): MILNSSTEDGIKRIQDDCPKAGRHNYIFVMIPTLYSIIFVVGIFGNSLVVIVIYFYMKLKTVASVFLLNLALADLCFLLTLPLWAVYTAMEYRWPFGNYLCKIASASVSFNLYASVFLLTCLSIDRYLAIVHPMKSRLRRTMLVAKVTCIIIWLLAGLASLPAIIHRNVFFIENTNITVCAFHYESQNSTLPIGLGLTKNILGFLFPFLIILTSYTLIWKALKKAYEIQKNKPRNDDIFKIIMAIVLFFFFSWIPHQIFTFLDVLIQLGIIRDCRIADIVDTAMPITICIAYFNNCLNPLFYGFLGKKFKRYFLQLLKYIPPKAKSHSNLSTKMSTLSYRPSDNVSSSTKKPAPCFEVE

[5] = growth suppression of PTEN-null colon cells, dose response, cell-based, HCT116 PTEN knockout (AID 1047); type: functional;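 further: HCT116 colon tumor cells with PTEN knocked out; cells exposed to compound for 60 hours before readout; potency for loss of cell viability measured by luminescence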
[6] = growth suppression of beta-catenin-knockout colon cells, dose response, cell-based, HCT116, human colon tumor (AID 1045); type: functional;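 further: HCT116 colon tumor cells with beta catenin knocked out; cells exposed to compound for 60 hours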
[7] = biological target: Induced myeloid leukemia cell differentiation protein Mcl-1 (Homo sapiens, UniProt Q07820); type: functional
Streptococcus = assay: Group A Streptococcus viability loss, dose response, counter-screen for streptokinase expression inhibitor project, luminescence, BacTiterGlo (AID 1915); type: functional, organism-based;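 further: potency for reduction of bacterial viability or growth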
[8] = biological target: Glucose-6-phosphate 1-dehydrogenase (Homo sapiens, UniProt P11413); assay: human G6PD enzyme inhibitors, dose response, selectivity assay for P. falciparum G6PD inhibitor project, biochemical, fluorescence (AID 504792); type: functional
CHO = assay: cytotoxicity in TLR9-MyD88 CHO cells, dose response, cytotoxicity control for TLR9-MyD88 binding inhibitor project, cell-based, luminescence (AID 588339); type: functional, hamster; conditions: Cricetulus griseus;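 further: CHO cells stably coexpressing TLR9 and MyD88 fusions from primary screen; compound exposure lasted 48 hours before viability readout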
[9] = biological target: T5, Replicative DNA helicase DnaB (Mycobacterium tuberculosis, UniProt P9WMR3); assay: DnaB intein splicing inhibitors, dose response, biochemical, cell-free fluorescence (AID 449749); type: functional
T5 sequence (P9WMR3 whole entry): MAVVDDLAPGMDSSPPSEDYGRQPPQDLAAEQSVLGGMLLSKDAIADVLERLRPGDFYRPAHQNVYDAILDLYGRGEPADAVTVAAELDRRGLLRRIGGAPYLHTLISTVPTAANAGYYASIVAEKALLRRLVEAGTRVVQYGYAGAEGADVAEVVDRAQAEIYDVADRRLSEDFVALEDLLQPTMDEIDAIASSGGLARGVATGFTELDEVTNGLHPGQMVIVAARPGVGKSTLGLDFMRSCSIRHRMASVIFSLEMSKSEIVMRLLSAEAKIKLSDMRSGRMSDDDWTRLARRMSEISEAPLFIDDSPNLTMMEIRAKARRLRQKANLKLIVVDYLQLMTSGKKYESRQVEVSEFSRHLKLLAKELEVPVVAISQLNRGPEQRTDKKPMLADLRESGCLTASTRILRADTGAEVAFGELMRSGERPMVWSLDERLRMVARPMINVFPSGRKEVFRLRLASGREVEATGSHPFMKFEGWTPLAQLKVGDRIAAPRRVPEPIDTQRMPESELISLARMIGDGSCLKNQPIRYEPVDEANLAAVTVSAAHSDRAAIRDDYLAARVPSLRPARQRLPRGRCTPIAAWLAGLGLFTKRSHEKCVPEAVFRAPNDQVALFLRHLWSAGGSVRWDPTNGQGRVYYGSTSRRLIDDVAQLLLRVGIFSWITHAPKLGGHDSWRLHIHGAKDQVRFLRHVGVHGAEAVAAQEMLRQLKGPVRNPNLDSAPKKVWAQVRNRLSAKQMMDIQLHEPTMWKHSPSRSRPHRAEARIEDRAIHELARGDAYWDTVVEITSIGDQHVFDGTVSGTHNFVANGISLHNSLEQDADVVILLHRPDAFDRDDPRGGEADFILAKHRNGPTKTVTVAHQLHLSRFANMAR

Vero = Vero cell cytotoxicity, cytotoxicity control for flavivirus capping enzyme inhibitors (AID 588742); type: functional; conditions: Chlorocebus sabaeus
Protein RecA = biological target: T6, Protein RecA (Mycobacterium tuberculosis, UniProt P9WHJ3); assay: Fluorescence Cell-Free Homogeneous Dose Retest to Identify Inhibitors of RecA-Intein Splicing Activity. [Related pubchem assays (depositor defined):AID2097, AID2223, AID489010, AID492950]; type: functional
T6 sequence (P9WHJ3 whole entry): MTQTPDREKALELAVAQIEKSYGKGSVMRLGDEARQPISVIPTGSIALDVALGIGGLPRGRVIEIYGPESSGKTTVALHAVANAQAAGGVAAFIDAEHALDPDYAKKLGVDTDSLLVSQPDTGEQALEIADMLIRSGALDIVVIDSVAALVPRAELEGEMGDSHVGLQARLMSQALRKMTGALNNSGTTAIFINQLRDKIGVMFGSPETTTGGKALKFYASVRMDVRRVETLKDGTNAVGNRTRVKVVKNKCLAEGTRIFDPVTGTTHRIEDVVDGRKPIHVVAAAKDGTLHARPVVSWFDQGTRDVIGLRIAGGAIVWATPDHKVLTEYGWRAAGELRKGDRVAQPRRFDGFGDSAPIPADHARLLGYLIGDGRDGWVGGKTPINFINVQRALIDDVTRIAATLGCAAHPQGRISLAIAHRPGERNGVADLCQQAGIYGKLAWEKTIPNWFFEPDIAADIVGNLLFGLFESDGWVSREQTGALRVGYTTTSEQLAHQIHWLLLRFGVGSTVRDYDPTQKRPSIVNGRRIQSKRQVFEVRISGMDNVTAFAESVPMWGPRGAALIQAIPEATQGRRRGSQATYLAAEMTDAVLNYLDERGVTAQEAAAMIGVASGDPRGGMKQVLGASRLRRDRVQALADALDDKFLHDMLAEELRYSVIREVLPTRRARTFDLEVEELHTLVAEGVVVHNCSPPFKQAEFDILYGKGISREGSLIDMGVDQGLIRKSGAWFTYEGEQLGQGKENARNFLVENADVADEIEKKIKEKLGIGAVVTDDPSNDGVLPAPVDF

Beta Lactamase = Beta Lactamase (Pseudomonas aeruginosa, UniProt Q932Y6); assay: beta-lactamase reporter inhibitor potency, dose response, artefact control for TLR9-MyD88 binding inhibitor project, BLA reporter cells, FRET fluorescence (AID 588341); type: cell-based;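 further: cell based assay in CHO-K1 cells stably expressing beta-lactamase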
Genome polyprotein [10] = biological target: Genome polyprotein (dengue virus type 2, UniProt P29990); assay: Dengue-2 NS5 methyltransferase inhibitors, primary screen, biochemical, confirmation dose response (AID 588689); type: functional
[11] = Shn3 3'UTR reporter inhibitors, dose response, cell-based, Clone20 osteoblasts, firefly luciferase, cherry-picked (AID 624132); type: functional;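 further: firefly luciferase luminescence from reporter carrying the Shn3 3'UTR in osteoblasts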
[12] = HepG2 cell cytotoxicity, dose response, cytotoxicity control for Shn3 inhibitor project, CellTiter-Glo, cherry-picked (AID 624134); type: functional, cell-based
[13] = control 3'UTR Renilla luciferase suppression, dose response, counter-screen for Shn3 inhibitor project, cell-based, Clone20-Shn3RL, cherry-picked (AID 624133); type: functional
[14] = THP-1 cell cytotoxicity, dose response, cytotoxicity control for Vif-APOBEC3G degradation inhibitor project, THP-1 cells (AID 1117359); type: functional; conditions: Human immunodeficiency virus 1, THP-1
[15] = Vero cell cytotoxicity, dose response, cytotoxicity control for Vif-APOBEC3G degradation inhibitor project, Vero cells (AID 1117358); type: functional; conditions: Human immunodeficiency virus 1, Vero
Cytochrome P450 2C9 = Cytochrome P450 2C9 (Homo sapiens, UniProt P11712)
Genome polyprotein [16] = biological target: Genome polyprotein (Hepatitis C virus, UniProt Q2Q167); assay: HCV core protein dimerization inhibitors, dose response, biochemical, TR-FRET (AID 2159); parameters: species or system Hepacivirus hominis;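 further: blocks dimerization of HCV core protein measured by TR-FRET between tagged core106 pairs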
Major prion protein = Major prion protein (Homo sapiens, UniProt P04156); type: functional, cell-based

T2 sequence (Q92731 whole entry): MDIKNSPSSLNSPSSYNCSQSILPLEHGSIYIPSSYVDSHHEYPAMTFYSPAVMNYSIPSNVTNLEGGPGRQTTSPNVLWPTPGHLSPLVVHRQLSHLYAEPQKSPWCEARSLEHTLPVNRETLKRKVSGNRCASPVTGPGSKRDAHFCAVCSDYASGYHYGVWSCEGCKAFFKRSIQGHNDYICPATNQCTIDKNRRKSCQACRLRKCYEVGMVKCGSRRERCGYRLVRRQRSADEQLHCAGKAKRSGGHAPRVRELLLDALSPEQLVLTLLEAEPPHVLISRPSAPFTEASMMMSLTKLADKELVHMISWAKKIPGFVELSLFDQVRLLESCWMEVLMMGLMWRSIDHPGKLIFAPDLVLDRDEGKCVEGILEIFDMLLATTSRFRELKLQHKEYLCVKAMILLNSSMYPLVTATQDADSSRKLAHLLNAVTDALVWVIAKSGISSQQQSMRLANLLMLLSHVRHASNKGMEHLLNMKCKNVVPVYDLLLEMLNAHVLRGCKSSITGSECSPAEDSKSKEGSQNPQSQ
Sequence of Glucose-6-phosphate 1-dehydrogenase (P11413 whole entry, the tested form may be a part): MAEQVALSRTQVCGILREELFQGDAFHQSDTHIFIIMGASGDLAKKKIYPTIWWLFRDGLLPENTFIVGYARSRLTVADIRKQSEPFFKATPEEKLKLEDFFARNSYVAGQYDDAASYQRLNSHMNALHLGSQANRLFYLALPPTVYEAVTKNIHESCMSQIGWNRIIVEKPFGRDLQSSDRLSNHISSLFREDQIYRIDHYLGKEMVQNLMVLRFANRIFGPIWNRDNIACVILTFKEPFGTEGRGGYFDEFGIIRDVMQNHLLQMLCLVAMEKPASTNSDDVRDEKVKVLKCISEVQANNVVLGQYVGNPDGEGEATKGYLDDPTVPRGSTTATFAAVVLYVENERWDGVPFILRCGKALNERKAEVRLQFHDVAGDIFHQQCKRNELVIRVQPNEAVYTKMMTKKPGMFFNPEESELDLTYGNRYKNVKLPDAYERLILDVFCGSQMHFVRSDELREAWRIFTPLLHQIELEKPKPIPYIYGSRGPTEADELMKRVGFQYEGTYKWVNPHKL
Sequence of Genome polyprotein (Hepatitis C virus, UniProt Q2Q167) (Q2Q167 whole entry): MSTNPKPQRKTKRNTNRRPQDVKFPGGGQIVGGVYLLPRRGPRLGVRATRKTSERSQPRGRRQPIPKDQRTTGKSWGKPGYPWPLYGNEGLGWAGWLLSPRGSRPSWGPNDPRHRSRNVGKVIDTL
Sequence of Genome polyprotein (dengue virus type 2, UniProt P29990) (P29990 2492-3391 limits assumed): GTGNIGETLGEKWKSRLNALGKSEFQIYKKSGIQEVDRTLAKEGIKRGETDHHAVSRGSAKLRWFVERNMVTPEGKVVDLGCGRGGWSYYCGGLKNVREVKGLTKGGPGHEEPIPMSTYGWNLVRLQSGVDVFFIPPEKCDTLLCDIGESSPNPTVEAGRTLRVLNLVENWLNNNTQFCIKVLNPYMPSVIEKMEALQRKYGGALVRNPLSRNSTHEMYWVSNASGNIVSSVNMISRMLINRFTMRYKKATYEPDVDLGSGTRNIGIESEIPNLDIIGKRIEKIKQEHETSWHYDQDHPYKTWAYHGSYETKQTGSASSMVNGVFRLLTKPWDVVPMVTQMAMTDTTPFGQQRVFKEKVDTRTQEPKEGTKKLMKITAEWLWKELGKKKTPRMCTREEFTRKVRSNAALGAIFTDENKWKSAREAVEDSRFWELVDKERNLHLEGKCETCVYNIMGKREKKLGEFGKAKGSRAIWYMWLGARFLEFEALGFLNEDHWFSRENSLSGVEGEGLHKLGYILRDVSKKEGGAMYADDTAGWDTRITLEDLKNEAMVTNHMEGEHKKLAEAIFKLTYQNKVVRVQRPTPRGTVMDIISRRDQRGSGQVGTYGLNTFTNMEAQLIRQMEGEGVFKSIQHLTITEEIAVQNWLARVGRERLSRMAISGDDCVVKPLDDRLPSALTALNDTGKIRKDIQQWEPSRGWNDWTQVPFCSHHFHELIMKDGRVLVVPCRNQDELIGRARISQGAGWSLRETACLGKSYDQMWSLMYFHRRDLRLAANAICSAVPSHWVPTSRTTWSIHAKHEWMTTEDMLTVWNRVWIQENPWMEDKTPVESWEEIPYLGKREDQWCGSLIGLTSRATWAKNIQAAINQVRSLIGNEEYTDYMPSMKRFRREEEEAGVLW
Sequence of Beta Lactamase (Q932Y6 whole entry): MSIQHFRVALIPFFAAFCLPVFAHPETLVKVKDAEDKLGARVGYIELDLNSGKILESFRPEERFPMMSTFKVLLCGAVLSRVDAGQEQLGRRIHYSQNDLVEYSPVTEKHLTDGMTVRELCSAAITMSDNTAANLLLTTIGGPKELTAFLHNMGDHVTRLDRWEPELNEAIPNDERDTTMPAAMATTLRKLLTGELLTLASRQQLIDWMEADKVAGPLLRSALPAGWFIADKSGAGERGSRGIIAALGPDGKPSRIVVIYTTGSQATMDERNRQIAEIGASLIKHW
Sequence of Cytochrome P450 2C9 (P11712 whole entry): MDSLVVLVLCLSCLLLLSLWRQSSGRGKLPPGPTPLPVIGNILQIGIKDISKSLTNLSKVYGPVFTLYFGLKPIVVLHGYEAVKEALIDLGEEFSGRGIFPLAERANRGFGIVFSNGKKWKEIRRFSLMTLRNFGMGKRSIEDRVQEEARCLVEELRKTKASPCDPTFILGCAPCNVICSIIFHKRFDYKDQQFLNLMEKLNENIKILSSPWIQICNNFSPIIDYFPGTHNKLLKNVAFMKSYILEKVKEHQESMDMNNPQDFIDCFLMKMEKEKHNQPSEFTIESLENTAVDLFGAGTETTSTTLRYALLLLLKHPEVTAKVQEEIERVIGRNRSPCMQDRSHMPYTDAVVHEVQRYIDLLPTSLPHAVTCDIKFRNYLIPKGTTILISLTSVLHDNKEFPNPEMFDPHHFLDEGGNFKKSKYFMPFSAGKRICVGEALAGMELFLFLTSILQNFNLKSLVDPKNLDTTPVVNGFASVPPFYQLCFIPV
Sequence of Induced myeloid leukemia cell differentiation protein Mcl-1 (Q07820 whole entry): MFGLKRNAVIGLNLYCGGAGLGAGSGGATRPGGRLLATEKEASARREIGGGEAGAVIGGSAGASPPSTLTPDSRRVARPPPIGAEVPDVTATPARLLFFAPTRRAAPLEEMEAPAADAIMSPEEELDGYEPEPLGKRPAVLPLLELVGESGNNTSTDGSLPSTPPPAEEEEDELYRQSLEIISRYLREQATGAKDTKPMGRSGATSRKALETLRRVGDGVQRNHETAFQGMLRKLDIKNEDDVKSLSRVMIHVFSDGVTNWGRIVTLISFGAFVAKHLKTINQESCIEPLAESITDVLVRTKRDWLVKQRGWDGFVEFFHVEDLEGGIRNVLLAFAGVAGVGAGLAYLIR
Sequence of Large T antigen (P03070 whole entry): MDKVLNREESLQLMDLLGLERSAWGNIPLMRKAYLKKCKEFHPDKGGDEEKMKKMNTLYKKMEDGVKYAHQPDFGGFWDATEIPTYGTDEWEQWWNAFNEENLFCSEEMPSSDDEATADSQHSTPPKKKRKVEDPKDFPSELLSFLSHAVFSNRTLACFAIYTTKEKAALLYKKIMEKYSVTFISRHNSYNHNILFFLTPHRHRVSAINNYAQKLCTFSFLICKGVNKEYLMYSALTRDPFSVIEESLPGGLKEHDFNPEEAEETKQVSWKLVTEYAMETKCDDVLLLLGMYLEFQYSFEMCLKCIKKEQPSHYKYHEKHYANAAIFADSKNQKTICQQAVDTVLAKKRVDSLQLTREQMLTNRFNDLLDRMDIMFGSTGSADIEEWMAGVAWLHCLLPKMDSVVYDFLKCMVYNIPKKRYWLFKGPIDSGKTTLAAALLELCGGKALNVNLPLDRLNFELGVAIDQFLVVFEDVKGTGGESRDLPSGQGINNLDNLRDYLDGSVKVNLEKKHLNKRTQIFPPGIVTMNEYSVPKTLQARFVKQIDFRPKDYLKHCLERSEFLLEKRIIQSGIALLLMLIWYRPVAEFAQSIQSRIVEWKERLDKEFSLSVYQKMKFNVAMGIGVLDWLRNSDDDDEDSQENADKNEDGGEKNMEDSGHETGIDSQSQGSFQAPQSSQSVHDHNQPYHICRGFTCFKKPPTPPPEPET
Sequence of Beta-galactosidase (Q8VNN2 whole entry): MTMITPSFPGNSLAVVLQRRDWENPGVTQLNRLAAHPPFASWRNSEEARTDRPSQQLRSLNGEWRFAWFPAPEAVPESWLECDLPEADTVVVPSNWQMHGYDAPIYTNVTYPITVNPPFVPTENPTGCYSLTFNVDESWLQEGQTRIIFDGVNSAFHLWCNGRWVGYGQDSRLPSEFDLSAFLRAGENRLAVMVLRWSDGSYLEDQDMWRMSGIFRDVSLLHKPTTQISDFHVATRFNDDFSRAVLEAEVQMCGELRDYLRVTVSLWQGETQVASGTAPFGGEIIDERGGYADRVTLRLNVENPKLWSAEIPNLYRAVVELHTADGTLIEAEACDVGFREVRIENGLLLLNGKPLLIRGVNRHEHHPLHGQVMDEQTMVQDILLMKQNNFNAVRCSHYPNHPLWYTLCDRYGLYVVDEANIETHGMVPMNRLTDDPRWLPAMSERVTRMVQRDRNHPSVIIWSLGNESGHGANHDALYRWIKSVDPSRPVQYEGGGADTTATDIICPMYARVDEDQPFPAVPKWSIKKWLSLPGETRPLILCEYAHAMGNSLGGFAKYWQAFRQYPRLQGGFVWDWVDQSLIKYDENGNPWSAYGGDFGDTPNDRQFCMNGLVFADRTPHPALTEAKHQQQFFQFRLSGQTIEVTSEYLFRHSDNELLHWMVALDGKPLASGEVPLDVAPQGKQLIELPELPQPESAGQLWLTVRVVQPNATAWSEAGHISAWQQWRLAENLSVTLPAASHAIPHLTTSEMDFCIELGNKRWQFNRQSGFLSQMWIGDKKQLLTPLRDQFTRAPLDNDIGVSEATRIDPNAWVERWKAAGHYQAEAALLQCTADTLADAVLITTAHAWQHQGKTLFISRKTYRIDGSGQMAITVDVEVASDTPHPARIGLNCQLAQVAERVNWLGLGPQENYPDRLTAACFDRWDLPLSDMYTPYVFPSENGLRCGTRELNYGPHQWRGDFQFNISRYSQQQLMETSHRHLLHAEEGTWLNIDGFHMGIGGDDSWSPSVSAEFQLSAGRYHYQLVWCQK

For `O=C1Nc2ccccc2/C1=C1/Nc2ccc(Br)cc2/C1=N\OCCN1CCNCC1`, the IC50 (Danio rerio) was > 30 µM (not active).
In the case of `O=C(CSc1nc2scc(-c3ccco3)c2c(=O)n1-c1ccccc1)NCC1CCCO1` (stereo not given), the IC50 (Estrogen receptor) is reported as 30.1 µM (not active), the IC50 (Estrogen receptor beta [1]) is reported as 22.1 µM (active) and the IC50 (Estrogen receptor beta [2]) is reported as 102 µM (not active).
With `ONC1c2cc(Cl)ccc2-c2c(Cl)cc(Cl)cc21` (stereo not given) the IC50 (Danio rerio) was < 0.3 µM (not active).
For `O=[N+]([O-])c1c(NCCO)cc(Sc2nc3ccccc3s2)c2nonc12`, the EC50 [3] was 2.73 µM (active), the EC50 (Beta-galactosidase) was > 40 µM (inactive) and the EC50 (Streptokinase A) was > 150 µM (not active). For the same molecule, the IC50 (Large T antigen) was 21.2 µM (active), the IC50 [4] was 1.9 µM (active) and the EC50 [5] was 11.1 µM (active). For the same molecule, the EC50 [6] was 10.7 µM (active), the IC50 [7] was 11.1 µM (not active) and the EC50 (Streptococcus) was 3.39 µM (active). The IC50 [8] was > 80 µM (inactive), the IC50 (CHO) was 1.94 µM (active) and the AC50 [9] was 1.05 µM (active). For the same molecule, the CC50 (Vero) was 32.9 µM (active), the EC50 (Protein RecA) was 0.722 µM (active) and the IC50 (Beta Lactamase) was 9.17 µM (active). The IC50 (Genome polyprotein [10]) was 75.8 µM (active), the AC50 [11] was 1.64 µM (active) and the AC50 [12] was 32.1 µM (active). The AC50 [13] was 10.7 µM (active), the CC50 [14] was 22.9 µM (active) and the CC50 [15] was > 40 µM (active). The AC50 (Cytochrome P450 2C9) was 0.631 µM (inconclusive).
With `CCOC(=O)c1sc(NC(=S)NC(=O)C2CCCC2)cc1C` the IC50 (Genome polyprotein [16]) was > 49.8 µM (not active), the IC50 (Major prion protein) was 5.29 µM (active) and the IC50 (cells) was > 138 µM (inactive).
